According to ChEMBL document CHEMBL1201861, “Genomics of Drug Sensitity in Cancer screening data, Wellcome Trust Sanger Institute”:
pIC50: −log10 of the molar value.

Experiments:
Test in all cases: cells
C32 = type: functional, cell-based, Homo sapiens; conditions: Homo sapiens, C32;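 further: cell viability assay, with IC50 reflecting inhibition of C32 cell growth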
Description: SANGER: Inhibition of human C32 cell growth in a cell viability assay.

D-566MG = type: functional, cell-based, Homo sapiens; conditions: Homo sapiens, D-566MG
Daoy = type: functional, cell-based, Homo sapiens; conditions: Homo sapiens, Daoy;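 further: daoy cell growth inhibition, read out as cell viability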
Description: SANGER: Inhibition of human Daoy cell growth in a cell viability assay.

23132-87 = type: functional, cell-based, Homo sapiens; conditions: Homo sapiens
Description: SANGER: Inhibition of human 23132-87 cell growth in a cell viability assay.

HuCCT-1 = type: functional, cell-based, Homo sapiens, HuCCT1; conditions: Homo sapiens, HuCCT-1;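 further: growth inhibition of HuCCT-1 cells, read out by a cell viability assay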
Description: SANGER: Inhibition of human HuCCT1 cell growth in a cell viability assay.

G-402 = type: functional, cell-based, Homo sapiens; conditions: Homo sapiens, G-402
Description: SANGER: Inhibition of human G-402 cell growth in a cell viability assay.

SW626 = type: functional, cell-based, Homo sapiens; conditions: Homo sapiens, SW626;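 further: growth inhibition of SW626 cells, measured with a cell viability assay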
Description: SANGER: Inhibition of human SW626 cell growth in a cell viability assay.

SW948 = type: functional, cell-based, Homo sapiens; conditions: Homo sapiens, SW948;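 further: growth inhibition of SW948 cells, read out with a cell viability assay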
Description: SANGER: Inhibition of human SW948 cell growth in a cell viability assay.

IGROV-1 = type: functional, cell-based, Homo sapiens; conditions: Homo sapiens, IGROV-1;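 further: reduction of IGROV-1 cell growth, read out with a viability assay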
Description: SANGER: Inhibition of human IGROV-1 cell growth in a cell viability assay.

A673 = type: functional, cell-based, Homo sapiens; conditions: Homo sapiens, A673;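 further: growth inhibition of human A673 cells, read out through a cell viability assay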
Description: SANGER: Inhibition of human A673 cell growth in a cell viability assay.

OVCAR-5 = type: functional, cell-based, Homo sapiens; conditions: Homo sapiens, OVCAR-5;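 further: growth inhibition of human OVCAR-5 cells, read out with a cell viability assay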
Description: SANGER: Inhibition of human OVCAR-5 cell growth in a cell viability assay.

NCI-H2291 = type: functional, cell-based, Homo sapiens; conditions: Homo sapiens, NCI-H2291
Description: SANGER: Inhibition of human NCI-H2291 cell growth in a cell viability assay.

WM-115 = type: functional, cell-based, Homo sapiens; conditions: Homo sapiens, WM-115
Description: SANGER: Inhibition of human WM-115 cell growth in a cell viability assay.

PANC-08-13 = type: functional, cell-based, Homo sapiens; conditions: Homo sapiens, PANC-08-13;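 further: cell growth inhibition, measured with a cell viability assay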
Description: SANGER: Inhibition of human PANC-08-13 cell growth in a cell viability assay.

CAL-33 = type: functional, cell-based, Homo sapiens; conditions: Homo sapiens, CAL-33;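 further: growth inhibition of CAL-33 cells, read out with a cell viability assay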
Description: SANGER: Inhibition of human CAL-33 cell growth in a cell viability assay.

SK-HEP1 = type: functional, cell-based, Homo sapiens, SK-HEP-1; conditions: Homo sapiens, SK-HEP1;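 further: cell viability readout used to quantify reduction in proliferation of human SK-HEP-1 cells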
Description: SANGER: Inhibition of human SK-HEP-1 cell growth in a cell viability assay.

BFTC-909 = type: functional, cell-based, Homo sapiens; conditions: Homo sapiens, BFTC-909
Description: SANGER: Inhibition of human BFTC-909 cell growth in a cell viability assay.

EFO-27 = type: functional, cell-based, Homo sapiens; conditions: Homo sapiens, EFO-27;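 further: growth inhibition of EFO-27 cells, read out with a cell viability assay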
Description: SANGER: Inhibition of human EFO-27 cell growth in a cell viability assay.

A-427 = type: functional, cell-based, Homo sapiens; conditions: Homo sapiens, A-427;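 further: growth inhibition of human A-427 cells, read out by a cell viability assay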
Description: SANGER: Inhibition of human A427 cell growth in a cell viability assay.

EPLC-272H = type: functional, cell-based, Homo sapiens; conditions: Homo sapiens, EPLC-272H
Description: SANGER: Inhibition of human EPLC-272H cell growth in a cell viability assay.

RMG-I = type: functional, cell-based, Homo sapiens; conditions: Homo sapiens, RMG-I;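 further: growth inhibition of human RMG-I cells, read out with a cell viability assay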
Description: SANGER: Inhibition of human RMG-I cell growth in a cell viability assay.

HT55 = type: functional, cell-based, Homo sapiens; conditions: Homo sapiens, HT55;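 further: cell viability readout measuring growth inhibition of human HT55 cells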
Description: SANGER: Inhibition of human HT55 cell growth in a cell viability assay.

SF-295 = type: functional, cell-based, Homo sapiens; conditions: Homo sapiens, SF-295;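 further: growth inhibition of SF-295 cells, read out with a cell viability assay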
Description: SANGER: Inhibition of human SF295 cell growth in a cell viability assay.

BHY = type: functional, cell-based, Homo sapiens; conditions: Homo sapiens, BHY;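 further: cell growth inhibition read out by a viability assay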
Description: SANGER: Inhibition of human BHY cell growth in a cell viability assay.

TCC-SUP = type: functional, cell-based, Homo sapiens; conditions: Homo sapiens, TCC-SUP;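 further: growth inhibition of TCC-SUP cells, read out with a cell viability assay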
Description: SANGER: Inhibition of human TCCSUP cell growth in a cell viability assay.

NCI-H810 = type: functional, cell-based, Homo sapiens; conditions: Homo sapiens, NCI-H810;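 further: IC50 reflects inhibition of cancer cell line growth, read out with a cell viability assay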
Description: SANGER: Inhibition of human NCI-H810 cell growth in a cell viability assay.

Capan-2 = type: functional, cell-based, Homo sapiens; conditions: Homo sapiens, Capan-2;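 further: Capan-2 cell growth inhibition, read out with a viability assay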
Description: SANGER: Inhibition of human Capan-2 cell growth in a cell viability assay.

SN12C = type: functional, cell-based, Homo sapiens; conditions: Homo sapiens, SN12C;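 further: growth inhibition of human SN12C cells, measured by a cell viability assay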
Description: SANGER: Inhibition of human SN12C cell growth in a cell viability assay.

NB7 = type: functional, cell-based, Homo sapiens; conditions: Homo sapiens, NB7;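 further: growth inhibition of NB7 cells, read out with a cell viability assay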
Description: SANGER: Inhibition of human NB7 cell growth in a cell viability assay.

CAL-12T = type: functional, cell-based, Homo sapiens; conditions: Homo sapiens, CAL-12T;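 further: growth inhibition of human CAL-12T cells, read out with a cell viability assay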
Description: SANGER: Inhibition of human CAL-12T cell growth in a cell viability assay.

U-118-MG = type: functional, cell-based, Homo sapiens; conditions: Homo sapiens, U-118-MG
Description: SANGER: Inhibition of human U-118-MG cell growth in a cell viability assay.

NB14 = type: functional, cell-based, Homo sapiens; conditions: Homo sapiens, NB14;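 further: growth inhibition of NB14 cells measured with a cell viability assay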
Description: SANGER: Inhibition of human NB14 cell growth in a cell viability assay.

G-361 = type: functional, cell-based, Homo sapiens; conditions: Homo sapiens, G-361
NCI-H2452 = type: functional, cell-based, Homo sapiens; conditions: Homo sapiens, NCI-H2452;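 further: growth inhibition of NCI-H2452 cells, read out with a cell viability assay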
Description: SANGER: Inhibition of human NCI-H2452 cell growth in a cell viability assay.

MKN-7 = type: functional, cell-based, Homo sapiens; conditions: Homo sapiens, MKN-7;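 further: growth inhibition of MKN-7 cells, read out with a cell viability assay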
Description: SANGER: Inhibition of human MKN7 cell growth in a cell viability assay.

MKN-1 = type: functional, cell-based, Homo sapiens; conditions: Homo sapiens, MKN-1;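 further: growth inhibition of human MKN1 cells, read out by a cell viability measurement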
Description: SANGER: Inhibition of human MKN1 cell growth in a cell viability assay.

HMV-2 cell line = type: functional, cell-based, Homo sapiens; conditions: Homo sapiens, HMV-2;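 further: growth inhibition of HMV-II cells, read out with a cell viability assay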
Description: SANGER: Inhibition of human HMV-II cell growth in a cell viability assay.

NCI-H358 = type: functional, cell-based, Homo sapiens; conditions: Homo sapiens, NCI-H358;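 further: growth inhibition of NCI-H358 human cells, read out with a cell viability assay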
Description: SANGER: Inhibition of human NCI-H358 cell growth in a cell viability assay.

LU-99A = type: functional, cell-based, Homo sapiens; conditions: Homo sapiens, LU-99A;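 further: growth inhibition of LU-99A cells, read out with a cell viability assay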
Description: SANGER: Inhibition of human LU-99A cell growth in a cell viability assay.

Compound	pIC50 (C32)	pIC50 (D-566MG)	pIC50 (Daoy)	pIC50 (HuCCT-1)	pIC50 (G-402)	pIC50 (SW626)	pIC50 (SW948)	pIC50 (IGROV-1)	pIC50 (A673)	pIC50 (OVCAR-5)	pIC50 (NCI-H2291)	pIC50 (WM-115)	pIC50 (PANC-08-13)	pIC50 (CAL-33)	pIC50 (SK-HEP1)	pIC50 (BFTC-909)	pIC50 (EFO-27)	pIC50 (A-427)	pIC50 (EPLC-272H)	pIC50 (RMG-I)	also measured
CN(C)C(=N)NC(=N)N [METFORMIN]	< 1.70	1.97	< 1.70	< 1.70	1.95	< 1.70	< 1.70	< 1.70	1.72	< 1.70	< 1.70	< 1.70	< 1.70	< 1.70	< 1.70	< 1.70	< 1.70	2.14	< 1.70	< 1.70	pIC50 (23132-87): 1.95; pIC50 (HT55): < 1.70; pIC50 (SF-295): 2.21; pIC50 (BHY): < 1.70; pIC50 (TCC-SUP): 2.40; pIC50 (NCI-H810): < 1.70
CO[C@H]1C[C@@H]2CC[C@@H](C)[C@@](O)(O2)C(=O)C(=O)N2CCCC[C@H]2C(=O)O[C@H]([C@H](C)C[C@@H]2CC[C@@H](OC(=O)C(C)(CO)CO)[C@H](OC)C2)CC(=O)[C@H](C)/C=C(\C)[C@@H](O)[C@@H](OC)C(=O)[C@H](C)C[C@H](C)/C=C/C=C/C=C/1C [TEMSIROLIMUS]	7.33	8.15	7.29	< 6.70	< 6.70	< 6.70	< 6.70	7.41	6.79	6.91	< 6.70	< 6.70	< 6.70	< 6.70	< 6.70	< 6.70	7.48	6.74	< 6.70	< 6.70	pIC50 (Capan-2): < 6.70; pIC50 (SN12C): 6.74; pIC50 (23132-87): 7.19; pIC50 (NB7): 7.75; pIC50 (CAL-12T): < 6.70; pIC50 (U-118-MG): 7.78; pIC50 (NB14): 7.00; pIC50 (G-361): 6.84; pIC50 (NCI-H2452): < 6.70; pIC50 (MKN-7): < 6.70; pIC50 (MKN-1): < 6.70; pIC50 (HMV-2 cell line): < 6.70; pIC50 (NCI-H358): 6.88; pIC50 (LU-99A): 6.90; pIC50 (HT55): < 6.70; pIC50 (SF-295): 7.22; pIC50 (BHY): < 6.70; pIC50 (TCC-SUP): 7.08; pIC50 (NCI-H810): < 6.70
Nc1cccc2c1CN(C1CCC(=O)NC1=O)C2=O (stereo unspecified) [LENALIDOMIDE]	< 5.30	< 5.30	< 5.30	< 5.30	< 5.30	< 5.30	< 5.30	< 5.30	< 5.30	< 5.30	< 5.30	< 5.30	< 5.30	< 5.30	< 5.30	< 5.30	< 5.30	< 5.30	< 5.30	< 5.30	pIC50 (Capan-2): < 5.30; pIC50 (SN12C): < 5.30; pIC50 (23132-87): < 5.30; pIC50 (NB7): < 5.30; pIC50 (CAL-12T): < 5.30; pIC50 (U-118-MG): < 5.30; pIC50 (NB14): < 5.30; pIC50 (G-361): < 5.30; pIC50 (NCI-H2452): < 5.30; pIC50 (MKN-7): < 5.30; pIC50 (MKN-1): < 5.30; pIC50 (HMV-2 cell line): < 5.30; pIC50 (NCI-H358): < 5.30; pIC50 (LU-99A): < 5.30; pIC50 (HT55): < 5.30; pIC50 (SF-295): < 5.30; pIC50 (BHY): < 5.30; pIC50 (TCC-SUP): < 5.30; pIC50 (NCI-H810): < 5.30
COc1cc2c(Nc3ccc(NC(=O)c4ccccc4)cc3)ncnc2cc1OCCCN1CCOCC1	5.42	5.75	< 5.40	< 5.40	< 5.40	< 5.40	< 5.40	< 5.40	< 5.40	< 5.40	< 5.40	< 5.40	< 5.40	5.76	< 5.40	< 5.40	< 5.40	< 5.40	< 5.40	< 5.40	pIC50 (Capan-2): < 5.40; pIC50 (SN12C): < 5.40; pIC50 (NB7): 5.76; pIC50 (CAL-12T): < 5.40; pIC50 (U-118-MG): < 5.40; pIC50 (NB14): 5.81; pIC50 (NCI-H2452): < 5.40; pIC50 (MKN-7): < 5.40; pIC50 (MKN-1): < 5.40; pIC50 (HMV-2 cell line): < 5.40; pIC50 (NCI-H358): < 5.40; pIC50 (LU-99A): < 5.40; pIC50 (HT55): < 5.40; pIC50 (SF-295): < 5.40; pIC50 (BHY): < 5.40; pIC50 (TCC-SUP): < 5.40; pIC50 (NCI-H810): < 5.40
